The subject of data set [1] is ADP-induced aggregation in rabbit platelet. Briefly: Inhibition effect on ADP-induced aggregation in rabbit platelet. As to conditions: for inhibition at 100 µM / inhibition at 10 µM / inhibition at 1 µM / inhibition at 0.1 µM: Oryctolagus cuniculus, Platelet; for inhibition at 10 µM / inhibition at 1 µM / inhibition at 0.1 µM: read-out: Inhibition effect on ADP-induced aggregation; for inhibition at 0.1 µM: concentration of the test compound solution 10^-7 mole. The format is cell-based. The procedure: (§1) The platelet aggregation inhibitory effect is measured by using AG-II aggregometer (manufactured by Bryston Manufacturing Co.). The blood sample used for the test is a 1/9 (by volume) mixture of sodium citrate and whole blood collected from rabbit. Said sample is subjected to 10-minute centrifugal separation at 1,000 r.p.m. to obtain a platelet rich plasma (PRP). The thus obtained PRP is separated, and the remaining blood sample is further subjected to 15-minute centrifugal separation at 3,000 r.p.m. to obtain a platelet poor plasma (PPP).
(§2) The number of platelets in the PRP is counted by the Brecher-Clonkite Method, and the PRP is diluted with the PPP to prepare a PRP sample with platelet concentration of 300,000/mm^3 for the adenosine diphosphate (ADP)-induced aggregation test. There is also prepared a PRP sample with platelet concentration of 450,000/mm^3 for the collagen-induced aggregation test.
(§3) 0.6 Milliliter of said PRP sample is added into 0.01 ml of a solution of a test compound of a predetermined concentration and the mixture is placed in a 37° C. thermostat for one minute. Then 0.07 ml of an ADP or collagen solution is added to the mixture. Transmittance of this mixture is determined and the change of transmittance is recorded by using the aggregometer at stirrer speed of 1,100 r.p.m. […] The ADP solution is adjusted to a concentration of 7.5×10^-5 M, and the collagen solution is prepared by triturating 100 mg of collagen with 5 ml of said buffer and the supernatant is used as collagen inducer. Acetylsalicylic acid is used as control for the ADP-induced aggregation test and the collagen-induced aggregation test, respectively. The platelet aggregation inhibitory effect is measured in terms of percent inhibition with respect to the aggregation rate of the controls. The aggregation rate is calculated from the following formula:
(§4) Aggregation rate=[(c-a)/(b-a)]×100
(§5) b: transmittance of PRP containing a test compound and an aggregation inducer

The next data set in a line: Acute Toxicity Test. As to conditions: mouse, in vivo; male mice, oral administration. The procedure: The test compounds were administered orally to the mice and LD50 (mg/kg) of the compounds was determined.
Data set [2] concerns collagen-induced aggregation in rabbit platelet. The data set is described as follows: Inhibition effect on collagen-induced aggregation in rabbit platelet. The format is cell-based. Conditions: for inhibition at 10 µM / inhibition at 1 µM / inhibition at 0.1 µM / inhibition at 100 µM: Oryctolagus cuniculus, Platelet, read-out: Inhibition effect on collagen-induced aggregation. The procedure: as §1, §2, §3, §4, §5

[3] abbreviates: concentration of the test compound solution 10^-4 mole.
[4] abbreviates: concentration of the test compound solution 10^-5 mole.
Where [5] appears, read: concentration of the test compound solution 10^-6 mole.
Setting [6] is: concentration of the test compound solution 10^-7 mole.

These results are taken from patent US4435404A, “Carbostyril derivatives” (priority 1980, dated 1984).

What is called inhibition is the relative decrease from the control value, in per cent. By LD50 is commonly meant the dose expected to kill half of the subjects tested. Low values mean a more toxic substance, high ones a less toxic substance.

Where two headings read alike, the source gives them in different places.

In the case of `CC(=O)OCCCN(CC1CCCCO1)C(=O)CCCCOc1ccc2c(c1)CCC(=O)N2` (centres unmarked) [No. 21, 6-{4-[N-(3-Acetyloxypropyl)-N-(2-tetrahydropyranylmethyl)aminocarbonyl]butoxy}-3,4-dihydrocarbostyril], 100 µM produced 100% inhibition in data set [1] (setting [3]). Also, the results for the inhibition at 10 µM in data set [1] (setting [4]) and in data set [2] (setting [4]) were 60.6% and 82.9%, respectively. In addition, the values for the inhibition at 1 µM in data set [1] (setting [5]) and in data set [2] (setting [5]) were 18.6% and 34.2%, respectively. In the data set “Acute Toxicity Test”, this molecule came in with an LD50 of over 1000 mg/kg.

`O=C(CCCOc1ccc2[nH]c(=O)ccc2c1)N1CCC(c2ccccc2)CC1` [No. 16, 6-[3-(4-Phenyl-1-piperidylcarbonyl)propoxy]carbostyril]: in data set [1] (setting [3]), the inhibition at 100 µM stood at 100%. Besides, the inhibition at 10 µM in data set [1] (setting [4]) came out at 27.9%; in data set [2] (setting [4]), 40.8%. For the same molecule, the inhibition at 1 µM in data set [1] (setting [5]) stood at 4.9%; in data set [2] (setting [5]) it was 7.7%. Moreover, the median lethal dose (LD50) in “Acute Toxicity Test” was over 1000 mg/kg.

For the molecule `CCC(O)CN(CC1CCCCC1)C(=O)CCCCOc1ccc2c(c1)CCC(=O)N2` (centres unmarked) [No. 7, 6-{4-[N-(2-Hydroxybutyl)-N-cyclohexylmethylaminocarbonyl]butoxy}-3,4-dihydrocarbostyril], the inhibition at 100 µM in data set [1] (setting [3]) was determined as 100%. In addition, the inhibition at 10 µM stood at 64.3% in data set [1] (setting [4]) and 100% in data set [2] (setting [4]). For the same molecule, the values for the inhibition at 1 µM in data set [1] (setting [5]) and in data set [2] (setting [5]) were 18.6% and 13.3%, respectively. The same molecule showed an LD50 in “Acute Toxicity Test” of over 1000 mg/kg.

With `COCCN(C(=O)CCCCOc1ccc2[nH]c(=O)ccc2c1)C1CCCCC1` [No. 23, 6-{4-[N-(2-Methoxyethyl)-N-cyclohexylaminocarbonyl]butoxy}carbostyril], the inhibition at 100 µM in data set [1] (setting [3]) came out at 100%. Besides, the inhibition at 10 µM in data set [1] (setting [4]) and in data set [2] (setting [4]) was 100% throughout. In addition, the inhibition at 1 µM is 91.9% in data set [1] (setting [5]) and 90.5% in data set [2] (setting [5]). Also, the inhibition at 0.1 µM was 40.4% in data set [1] and 67% in data set [2] (setting [6]). Also, the median lethal dose (LD50) in the data set “Acute Toxicity Test” is over 1000 mg/kg.

`CC(C)NC(=O)CCOc1ccc2c(c1)CCC(=O)N2` [No. 64, 6-(N--Isopropylaminocarbonylethoxy)-3,4-dihydrocarbostyril, reference compound]: the “Inhibition effect on ADP-induced aggregation” value in data set [1] (setting [3]) was determined as 18%; in data set [1] (setting [4]) it was 13%; in data set [1] (setting [5]), 7%. Further, the “Inhibition effect on collagen-induced aggregation” value in data set [2] (setting [3]) is 17%; in data set [2] (setting [5]), 0%; in data set [2] (setting [6]), 0%.

`O=C1CCc2cc(OCCCCC(=O)N(CCO)Cc3ccccc3)ccc2N1` [No. 22, 6-{4-[N-(2-Hydroxyethyl)-N-benzylaminocarbonyl]butoxy}-3,4-dihydrocarbostyril] displayed an inhibition at 100 µM in data set [1] (setting [3]) of 100%. The inhibition at 10 µM in data set [1] (setting [4]) is 63.2%; in data set [2] (setting [4]), 49.2%. Also, the inhibition at 1 µM came to 28.8% in data set [1] (setting [5]) and 16.1% in data set [2] (setting [5]). This molecule displayed an LD50 in the data set “Acute Toxicity Test” of over 1000 mg/kg.

For the molecule `O=C1CCc2cc(OCC(=O)N3CCOCC3)ccc2N1` [No. 65, 6-(Morpholinocarbonylmethoxy)-3,4-dihydrocarbostyril, reference compound], the inhibition at 100 µM in data set [1] (setting [3]) worked out at 13%; in data set [2] (setting [3]), 5%. In addition, the inhibition at 10 µM stood at 6% in data set [1] (setting [4]) and 0% in data set [2] (setting [4]). The inhibition at 1 µM in data set [1] (setting [5]) and in data set [2] (setting [5]) was 0% each time.

Molecule `CCC(O)CN(C(=O)CCCCOc1ccc2[nH]c(=O)ccc2c1)C1CCCCCCC1` (centres unmarked) [No. 9, 6-{4-[N-(2-Hydroxybutyl)-N-cyclooctylaminocarbonyl]butoxy}carbostyril] registered an inhibition at 100 µM in data set [1] (setting [3]) of 100%. In addition, the inhibition at 10 µM worked out at 84.9% in data set [1] (setting [4]) and 100% in data set [2] (setting [4]). Besides, the inhibition at 1 µM in data set [1] (setting [5]) was determined as 40.1%; in data set [2] (setting [5]), 100%. Further, the inhibition at 0.1 µM in data set [1] came out at 5.6%; in data set [2] (setting [6]), 43.2%. Besides, the median lethal dose (LD50) in “Acute Toxicity Test” is over 1000 mg/kg.

As for `O=C1CCc2cc(OCCCC(=O)Nc3c(Cl)cccc3Cl)ccc2N1` [No. 44, 6-[3-(o,o-Dichloroanilinocarbonyl)propoxy]-3,4-dihydrocarbostyril, reference compound], the results for the inhibition at 100 µM in data set [1] (setting [3]) and in data set [2] (setting [3]) were 36.8% and 95.1%, respectively. The inhibition at 10 µM in data set [1] (setting [4]) came to 5.3%; in data set [2] (setting [4]), 27.6%.

Take `O=C1CCc2cc(OCCCC(=O)N(C3CCCCC3)C3CCCCC3Cl)ccc2N1` (centres unmarked) [No. 30, 6-{3-[N--Cyclohexyl-N--(2-chlorocyclohexyl)-aminocarbonyl]propoxy}-3,4-dihydrocarbostyril, reference compound]: the “Inhibition effect on ADP-induced aggregation” value is listed as 89.8% in data set [1] (setting [3]), 82.9% in data set [1] (setting [4]) and 38.4% in data set [1] (setting [5]). For the same molecule, the “Inhibition effect on collagen-induced aggregation” value in data set [2] (setting [3]) was 91.5%; in data set [2] (setting [4]), 89.9%; in data set [2] (setting [5]), 50.3%.

`O=C1CCc2cc(OCCCC(=O)N3CCN(C4CCCCC4)CC3)ccc2N1` [No. 18, 6-[3-(4-Cyclohexyl-1-piperazinylcarbonyl)propoxy]-3,4-dihydrocarbostyril] had an inhibition at 100 µM in data set [1] (setting [3]) of 100%. Moreover, the inhibition at 10 µM in data set [1] (setting [4]) is 42.1%; in data set [2] (setting [4]) it was 45.6%. Moreover, the values for the inhibition at 1 µM in data set [1] (setting [5]) and in data set [2] (setting [5]) were 7% and 15.2%, respectively. The molecule further displayed a 50% lethal dose (LD50) in the data set “Acute Toxicity Test” of over 1000 mg/kg.

Molecule `O=C(CCCOc1ccc2[nH]c(=O)ccc2c1)N(CCO)C1CCCC(O)C1` (centres unmarked) [No. 19, 6-{3-[N-(2-Hydroxyethyl)-N-(3-hydroxycyclohexyl)aminocarbonyl]propoxy}carbostyril] gave an inhibition at 100 µM in data set [1] (setting [3]) of 100%. Further, the inhibition at 10 µM in data set [1] (setting [4]) came to 63.2%; in data set [2] (setting [4]) it was 95.3%. The results for the inhibition at 1 µM in data set [1] (setting [5]) and in data set [2] (setting [5]) were 12% and 47.5%, respectively. For the same molecule, the LD50 in the data set “Acute Toxicity Test” was over 1000 mg/kg.

Regarding `COc1ccc(CCN(CCO)C(=O)CCCCOc2ccc3[nH]c(=O)ccc3c2)cc1OC` [No. 20, 6-{4-[N-(2-Hydroxyethyl)-N-(β-3,4-dimethoxyphenethyl)aminocarbonyl]butoxy}carbostyril], in data set [1] (setting [3]), the inhibition at 100 µM amounted to 100%. The figures for the inhibition at 10 µM in data set [1] (setting [4]) and in data set [2] (setting [4]) were 73.2% and 82.6%, respectively. Besides, the values for the inhibition at 1 µM in data set [1] (setting [5]) and in data set [2] (setting [5]) were 28.8% and 29.2%, respectively. In “Acute Toxicity Test”, the median lethal dose (LD50) was over 1000 mg/kg.

Turning to `O=C1CCc2cc(OCCCC(=O)N3CCN(c4ccccc4)CC3)ccc2N1` [No. 17, 6-[3-(4-Phenyl-1-piperazinylcarbonyl)propoxy]-3,4-dihydrocarbostyril], in data set [1] (setting [3]), at 100 µM the inhibition was 100%. Besides, the inhibition at 10 µM in data set [1] (setting [4]) was found to be 25.1%; in data set [2] (setting [4]) it was 37.8%. Besides, the figures for the inhibition at 1 µM in data set [1] (setting [5]) and in data set [2] (setting [5]) were 4.3% and 3.4%, respectively. Further, the median lethal dose (LD50) in “Acute Toxicity Test” was over 1000 mg/kg.

For the molecule `O=C1CCc2cc(OCCCCC(=O)N(CCO)c3ccccc3)ccc2N1` [No. 11, 6-{4-[N-(2-Hydroxyethyl)-N-phenylaminocarbonyl]butoxy}-3,4-dihydrocarbostyril], the inhibition at 100 µM in data set [1] (setting [3]) amounted to 100%. For the same molecule, the inhibition at 10 µM in data set [1] (setting [4]) stood at 49.5%; in data set [2] (setting [4]) it was 100%. Further, the inhibition at 1 µM worked out at 22.4% in data set [1] (setting [5]) and 33.9% in data set [2] (setting [5]). In the data set “Acute Toxicity Test”, this molecule registered an LD50 of over 1000 mg/kg.

`CN(Cc1cccs1)C(=O)CCCOc1ccc2[nH]c(=O)ccc2c1` [No. 5, 6-{3-[N-Methyl-N-(2-thienylmethyl)aminocarbonyl]propoxy}carbostyril]: the inhibition at 100 µM in data set [1] (setting [3]) came out at 100%; in data set [2] (setting [3]), 85.7%. The results for the inhibition at 10 µM in data set [1] (setting [4]) and in data set [2] (setting [4]) were 54.7% and 30.7%, respectively. Moreover, the inhibition at 1 µM in data set [1] (setting [5]) amounted to 7.1%. Further, the median lethal dose (LD50) in “Acute Toxicity Test” is over 1000 mg/kg.

Regarding `CC(=O)Oc1ccccc1C(=O)O` [No. 69, Aspirin, reference compound], in data set [2], the inhibition at 1 µM was found to be 7%, the inhibition at 10 µM worked out at 9% and the inhibition at 100 µM came out at 65%.
